Eight compounds from US9376470B2, “Polypeptide having angiogenesis-inducing activity and antibacterial activity, and use thereof for medical purposes” (FunPep Inc., priority 2008, dated 2016) can be followed below.

Data set [1] relates to Enterobacteria (2): Enterobacter aerogenes JCM 1235. Description: Antibacterial activity, ATP assay (BacTiter-Glo). The format is cell-based. The settings on record: ATP assay concentration: peptides 10, TOB 4.0, CPFX 1.0, OX 4.0, MEPM 8.0 μg/ml. The method, then:
(§1) That is, using BacTiter-Glo Microbial Cell Viability Assay kit available from PROMEGA, the antibacterial activity of the peptides was evaluated from the viability of bacteria. […] With respect to the strains, Staphylococcus aureus ATCC29213 (S. aureus ATCC29213) as Gram-positive bacteria, or, alternatively, Pseudomonas aeruginosa (P. aeruginosa ATCC27853) as Gram-negative bacteria, was used. The bacteria were cultured in media for 3 to 4 hours, and thereafter absorbances at A600 were measured. Bacterial suspensions were diluted with Mueller-Hinton broth (MHB) according to McFarland #0.5. Each strain was added so as to attain about 0.5−1×10^5 CFU/mL (final concentration) in terms of Escherichia coli. […] A solution to which the peptides were not added was considered as a negative control, and a solution to which tobramycin (TOB) was added was considered as a positive control. […] Relative values were calculated by comparison with the negative control, and these values were regarded as the viability. […] ATP (%) of the antibacterial activity was measured in the same manner as mentioned above, and the “minimum inhibitory concentration (MIC)” was measured as follows. MIC is the lowest concentration of an agent that may inhibit the growth of a bacterium. MIC is used as a parameter for the efficacy of an antibacterial agent, for the strength of bacterial sensitivity, or the like. The bacteria can grow (proliferate) when the concentration is not higher than MIC, and cannot grow when the concentration is higher than MIC. Its measurement is carried out according to a method defined as a standard method by Japanese Society of Chemotherapy or CLINICAL AND LABORATORY […] (CLSI), but, in this Example, its measurement was carried out by a broth microdilution method in accordance with “M100-S17/M7-A7” (Performance Standards for Antimicrobial Susceptibility Testing; Seventeenth Informational Supplement, Vol. 27 No. 1) published by CLSI on January, 2007. That is, sensitivity test of agents was carried out using a microtiter plate or test tubes. With respect to each strain, Escherichia coli: ATCC 25922 (Escherichia coli ATCC 25922), Pseudomonas aeruginosa: ATCC 27853 (Pseudomonas aeruginosa ATCC 27853), Staphylococcus aureus: ATCC29213 (Staphylococcus aureus ATCC29213), Klebsiella pneumoniae: JCM 1662 (Klebsiella pneumoniae JCM 1662), enterobacteria (1): JCM 1232 (Enterobacter cloacae JCM 1232), enterobacteria (2): JCM 1235 (Enterobacter aerogenes JCM 1235), and Staphylococcus epidermidis: JCM 2414 (Staphylococcus epidermidis JCM 2414), were used. […] As the concentrations of the agents in ATP assay, the concentrations as described in the Tables were used.

In data set [2] the test system is Escherichia coli ATCC 25922. Kind of data set: Antibacterial activity, ATP assay (BacTiter-Glo). Format: cell-based. The settings on record: ATP assay concentration: peptides 10, TOB 1.0, CPFX 0.015, OX 0.5, MEPM 0.1 μg/ml. The protocol: as §1
The subject of data set [3] is Klebsiella pneumoniae JCM 1662. Description: Antibacterial activity, ATP assay (BacTiter-Glo). Format: cell-based. The settings on record: ATP assay concentration: peptides 10, TOB 4.0, CPFX 1.0, OX 0.5, MEPM 8.0 μg/ml. The method, then:
as §1

The test system of data set [4] is Staphylococcus epidermidis JCM 2414. Description: Antibacterial activity, ATP assay (BacTiter-Glo). Format: cell-based. The following applies: ATP assay concentration: peptides 10, TOB 1.0, CPFX 0.5, OX 0.5, MEPM 0.125 μg/ml. The method, then:
as §1

The format of data set [5] is in vitro ADME. The following applies: human serum, 37° C. The protocol: Then, the stability of five polypeptides SR-1 to 5 in serum was evaluated.
In human serum (purchased from KAC Co., Ltd.), or in rat serum obtained by collecting blood from a rat, then leaving the collected blood to stand at room temperature followed by centrifugation, each of the peptides was dissolved so as to attain a final concentration of 500 μg/mL, and the obtained solutions were left to stand at 37° C. After leaving to stand for 10 min or 30 min or 60 min, these solutions were subjected to HPLC chromatogram analysis to detect peaks of the decomposition products, and calculate the ratio of the concentration of the peptides which remained in the solutions relative to the starting concentration. In addition, the half-lives of the peptides in serum were also calculated.
HPLC chromatogram analysis conditions are as follows.

Structures are written as SMILES. Peptide text beside a SMILES is read from it.

In general, half-life refers to the time needed for the level to fall by half in the phase considered. Read a low half-life as rapid decline.

Regarding `CC[C@H](C)[C@H](NC(=O)[C@H](CC(C)C)NC(=O)[C@H](CCCCN)NC(=O)[C@H](CC(C)C)NC(=O)[C@@H](N)CCSC)C(=O)N[C@@H](Cc1ccccc1)C(=O)N[C@@H](CC(C)C)C(=O)N[C@@H](Cc1c[nH]cn1)C(=O)N[C@@H](CCCNC(=N)N)C(=O)N[C@@H](CC(C)C)C(=O)N[C@@H](CCCCN)C(=O)N[C@@H](CCCNC(=N)N)C(=O)N[C@@H](CCSC)C(=O)N[C@@H](CCCNC(=N)N)C(=O)N[C@@H](CCCCN)C(=O)N[C@@H](CCCNC(=N)N)C(=O)N[C@@H](CC(C)C)C(=O)N[C@@H](CCCCN)C(=O)N[C@@H](CCCNC(=N)N)C(=O)N[C@@H](CCCCN)C(=O)O` [SR-1] (H-MLKLIFLHRLKRMRKRLKRK-OH; N-terminus assumed), in data set [1], the “ATP (%) mean, Enterobacteria (2)” value is 39.4%. For the same compound, the “ATP (%) mean, Escherichia coli” value in data set [2] was determined as 18.4%. Further, the “ATP (%) mean, Klebsiella pneumoniae” value in data set [3] was determined as 22.1%. For the same compound, the “ATP (%) mean, Staphylococcus epidermidis” value in data set [4] was determined as 5.2%. The half-life in data set [5] was found to be 4 min.

With `CC[C@H](C)[C@H](NC(=O)[C@H](CC(C)C)NC(=O)[C@@H](N)CCCCN)C(=O)N[C@@H](Cc1ccccc1)C(=O)N[C@@H](CC(C)C)C(=O)N[C@@H](Cc1c[nH]cn1)C(=O)N[C@@H](CCCNC(=N)N)C(=O)N[C@@H](CC(C)C)C(=O)N[C@@H](CCCCN)C(=O)N[C@@H](CCCNC(=N)N)C(=O)N[C@@H](CCSC)C(=O)N[C@@H](CCCNC(=N)N)C(=O)N[C@@H](CCCCN)C(=O)N[C@@H](CCCNC(=N)N)C(=O)N[C@@H](CC(C)C)C(=O)N[C@@H](CCCCN)C(=O)N[C@@H](CCCNC(=N)N)C(=O)N[C@@H](CCCCN)C(=O)N[C@@H](CC(C)C)C(=O)N[C@@H](CCCNC(=N)N)C(N)=O` [SR-4] (H-KLIFLHRLKRMRKRLKRKLR-NH2; N-terminus assumed), the “ATP (%) mean, Enterobacteria (2)” value in data set [1] came out at 20.9%. In addition, the “ATP (%) mean, Escherichia coli” value in data set [2] is given as 13.0%. In addition, the “ATP (%) mean, Klebsiella pneumoniae” value in data set [3] turned out to be 15.0%. The “ATP (%) mean, Staphylococcus epidermidis” value in data set [4] is listed as 5.5%. In data set [5], the half-life is 16 min.

On to `C[C@@H](O)[C@H]1C(=O)N2C(C(=O)O)=C(S[C@@H]3CN[C@H](C(=O)N(C)C)C3)[C@H](C)[C@H]12` [MEPM, meropenem, reference compound], for which the “ATP (%) mean, Enterobacteria (2)” value in data set [1] is 2.3%. Besides, the “ATP (%) mean, Escherichia coli” value in data set [2] was 15.7%. In addition, in data set [3], the “ATP (%) mean, Klebsiella pneumoniae” value turned out to be 11.9%. In data set [4], the “ATP (%) mean, Staphylococcus epidermidis” value is given as 28.2%.

For the compound `CSCC[C@H](NC(=O)[C@H](CCCNC(=N)N)NC(=O)[C@H](CCCCN)NC(=O)[C@H](CC(C)C)NC(=O)[C@H](CCCNC(=N)N)NC(=O)[C@H](Cc1c[nH]cn1)NC(=O)[C@H](CC(C)C)NC(=O)[C@H](Cc1ccccc1)NC(=O)[C@H](CCCNC(=N)N)NC(=O)[C@H](CC(C)C)NC(=O)[C@@H](N)CCC(=O)O)C(=O)N[C@@H](CCCNC(=N)N)C(=O)N[C@@H](CCCCN)C(=O)N[C@@H](CCCNC(=N)N)C(=O)N[C@@H](CC(C)C)C(=O)N[C@@H](CCCCN)C(=O)N[C@@H](CCCNC(=N)N)C(=O)N[C@@H](CCCCN)C(=O)N[C@@H](CC(C)C)C(=O)N[C@@H](CCCNC(=N)N)C(N)=O` [SR-3] (H-ELRFLHRLKRMRKRLKRKLR-NH2; N-terminus assumed), in data set [1], the “ATP (%) mean, Enterobacteria (2)” value amounted to 23.5%. Also, the “ATP (%) mean, Escherichia coli” value in data set [2] turned out to be 16.5%. In addition, the “ATP (%) mean, Klebsiella pneumoniae” value in data set [3] is listed as 20.3%. For the same compound, the “ATP (%) mean, Staphylococcus epidermidis” value in data set [4] was 4.1%. In addition, the half-life in data set [5] came out at 15 min.

Turning to `CC(C)C[C@H](NC(=O)[C@H](CCCCN)NC(=O)[C@H](CCCNC(=N)N)NC(=O)[C@H](CCCCN)NC(=O)[C@H](CC(C)C)NC(=O)[C@H](CCCNC(=N)N)NC(=O)[C@H](CCCCN)NC(=O)[C@H](CCCNC(=N)N)NC(=O)[C@H](CC(C)C)NC(=O)[C@H](CCCNC(=N)N)NC(=O)[C@H](CCCNC(=N)N)NC(=O)[C@H](CCCCN)NC(=O)[C@H](CC(C)C)NC(=O)[C@H](CCCNC(=N)N)NC(=O)[C@H](Cc1c[nH]cn1)NC(=O)[C@H](CC(C)C)NC(=O)[C@H](Cc1ccccc1)NC(=O)[C@H](CCCNC(=N)N)NC(=O)[C@H](CC(C)C)NC(=O)[C@@H](N)CCC(=O)O)C(=O)N[C@@H](CCCNC(=N)N)C(N)=O` [SR-2] (H-ELRFLHRLKRRLRKRLKRKLR-NH2; N-terminus assumed), the “ATP (%) mean, Enterobacteria (2)” value in data set [1] came out at 15.3%. In data set [2], the “ATP (%) mean, Escherichia coli” value is 6.2%. Besides, the “ATP (%) mean, Klebsiella pneumoniae” value in data set [3] is listed as 9.1%. Further, the “ATP (%) mean, Staphylococcus epidermidis” value in data set [4] is 2.6%. The half-life in data set [5] came out at 12 min.

As for `CSCC[C@H](NC(=O)[C@H](CCCNC(=N)N)NC(=O)[C@@H](N)CCCCN)C(=O)N[C@@H](CCCNC(=N)N)C(=O)N[C@@H](CCCCN)C(=O)N[C@@H](CCCNC(=N)N)C(=O)N[C@@H](CC(C)C)C(=O)N[C@@H](CCCCN)C(=O)N[C@@H](CCCNC(=N)N)C(=O)N[C@@H](CCCCN)C(=O)N[C@@H](CC(C)C)C(=O)N[C@@H](CCCNC(=N)N)C(=O)N[C@@H](CC(C)C)C(=O)N[C@@H](Cc1c[nH]c2ccccc12)C(=O)N[C@@H](Cc1c[nH]cn1)C(=O)N[C@@H](CCCNC(=N)N)C(=O)N[C@@H](CCCCN)C(=O)N[C@@H](CCCNC(=N)N)C(=O)N[C@@H](Cc1ccc(O)cc1)C(=O)N[C@@H](CCCCN)C(=O)O` [SR-5] (H-KRMRKRLKRKLRLWHRKRYK-OH; N-terminus assumed), in data set [1], the “ATP (%) mean, Enterobacteria (2)” value came out at 41.5%. The “ATP (%) mean, Escherichia coli” value in data set [2] is given as 27.0%. The “ATP (%) mean, Klebsiella pneumoniae” value in data set [3] was 30.0%. For the same compound, the “ATP (%) mean, Staphylococcus epidermidis” value in data set [4] worked out at 3.6%. The half-life in data set [5] was determined as 21 min.

For the compound `Cc1onc(-c2ccccc2)c1C(=O)N[C@@H]1C(=O)N2[C@@H]1SC(C)(C)[C@@H]2C(=O)O` [OX, oxacillin, reference compound], the “ATP (%) mean, Enterobacteria (2)” value in data set [1] came to 86.9%. In data set [2], the “ATP (%) mean, Escherichia coli” value was 114.4%. The “ATP (%) mean, Klebsiella pneumoniae” value in data set [3] was 142.2%. The “ATP (%) mean, Staphylococcus epidermidis” value in data set [4] is listed as 101.4%.

Turning to `NC[C@H]1O[C@H](O[C@H]2[C@H](O)[C@@H](O[C@H]3O[C@H](CO)[C@@H](O)[C@H](N)[C@H]3O)[C@H](N)C[C@@H]2N)[C@H](N)C[C@@H]1O` [TOB, tobramycin, reference compound], the “ATP (%) mean, Enterobacteria (2)” value in data set [1] was determined as 0.5%. In data set [2], the “ATP (%) mean, Escherichia coli” value is 3.8%. Besides, the “ATP (%) mean, Klebsiella pneumoniae” value in data set [3] was found to be 3.8%. The “ATP (%) mean, Staphylococcus epidermidis” value in data set [4] amounted to 4.2%.
